Literature values as cited in PubChem BioAssay AID1259409 (Chemical Carcinogenesis Research Information System (CCRIS), 2018).

System: rodent chemically induced tumor inhibition, incidence and multiplicity
Assay: CCRIS tumor inhibitor studies
Conditions: Route [Inhibitor]: ORAL, Species: RAT; for tumour outcome (control, treated, inhibition, significance): Promoter: NONE USED

Compound: CC(=O)OC/C=C(C)/C=C/C=C(C)/C=C/C1=C(C)CCCC1(C)C
- outcome (Carcinogen: N-BIS-(2-HYDROXYPROPYL)NITROSAMINE [53609-64-6], Dose [Inhibitor]: 0, 0.1% IN DIET 4 WK BEGINNING 1 WK POST CARCINOGEN DOSE (STUDY DURATION: 5 WK), Strain/Sex: F344/DUCRJ/MALE, Target Tissue: Type of Lesion: THYROID GLAND: ADENOMATOUS GROWTH PATTERN, Dose [Carcinogen]: 2800 MG/KG BW ONCE (STUDY DURATION: 5 WK), Promoter: NONE): 0%, 0%, 0%, not significant
- tumour outcome (control, treated, inhibition, significance) (Carcinogen: N-METHYL-N-NITROSOUREA, 684-93-5, Dose [Inhibitor]: 0, 328 MG/KG DIET FOR 88 D BEGINNING 2 D POST CARCINOGEN DOSE (STUDY DURATION: 90 D), Strain/Sex: SPRAGUE-DAWLEY/FEMALE, Target Tissue: Type of Lesion: MAMMARY GLAND: ADENOCARCINOMA, Dose [Carcinogen]: 45 MG/KG BW ONCE): 100%, 73%, 27%, p<0.05
- tumour outcome (control, treated, inhibition, significance) (Carcinogen: N-METHYL-N-NITROSOUREA, 684-93-5, Dose [Inhibitor]: 0, 328 MG/KG OF DIET BEGINNING 2 D POST CARCINOGEN DOSE AND CONTINUING FOR DURATION OF STUDY (STUDY DURATION: 90 D), Strain/Sex: SPRAGUE-DAWLEY/FEMALE, Target Tissue: Type of Lesion: MAMMARY GLAND: ADENOCARCINOMA, Dose [Carcinogen]: 45 MG/KG BW ONCE AT 50 D OF AGE): 100%, 80%, 20%, not calculated
- tumour outcome (control, treated, inhibition, significance) (Carcinogen: N-METHYL-N-NITROSOUREA, 684-93-5, Dose [Inhibitor]: 0, 328 MG/KG OF DIET FOR DURATION OF STUDY BEGINNING 1 WK PRIOR TO CARCINOGEN TREATMENT (STUDY DURATION: 117 D), Strain/Sex: SPRAGUE-DAWLEY /FEMALE, Target Tissue: Type of Lesion: MAMMARY GLAND: ADENOCARCINOMA, Dose [Carcinogen]: 50 MG/KG BW ONCE): 100%, 84%, 16%, not significant
- tumour outcome (control, treated, inhibition, significance) (Carcinogen: N-METHYL-N-NITROSOUREA, 684-93-5, Dose [Inhibitor]: 0.8 MMOL/KG DIET DAILY STARTING 12 D AFTER CARCINOGEN TREATMENT THROUGH ABOUT 8 MO AFTER FIRST CARCINOGEN DOSE (STUDY DU, Strain/Sex: F344/MALE, Target Tissue: Type of Lesion: COLON: ADENOCARCINOMA, Dose [Carcinogen]: 2.5 MG 1/WK FOR 2 WK): 5/39 (13%), 4/29 (14%), -8%, not significant
- tumour outcome (control, treated, inhibition, significance) (Carcinogen: N-METHYL-N-NITROSOUREA, 684-93-5, Dose [Inhibitor]: 0.8 MMOL/KG DIET DAILY STARTING 12 D AFTER CARCINOGEN TREATMENT THROUGH ABOUT 8 MO AFTER FIRST CARCINOGEN DOSE (STUDY DU, Strain/Sex: F344/MALE, Target Tissue: Type of Lesion: COLON: ADENOMA, Dose [Carcinogen]: 2.5 MG 1/WK FOR 2 WK): 16/39 (41%), 9/29 (31%), 24%, not significant
- tumour outcome (control, treated, inhibition, significance) (Carcinogen: N-METHYL-N-NITROSOUREA, 684-93-5, Dose [Inhibitor]: 1.0 MM IN DIET DAILY (328 MG/KG DIET) STARTING D 60 OF AGE UNTIL END OF STUDY (STUDY DURATION: 4 MO), Strain/Sex: SPRAGUE-DAWLEY/FEMALE, Target Tissue: Type of Lesion: MAMMARY GLAND: CARCINOMA, Dose [Carcinogen]: 2.5 MG/100 G BODY WEIGHT IN 0.9% NACL SOLUTION ADMINISTERED AT D 50 AND 57 OF AGE): 87%, 54%, 38%, p<0.01
- tumour outcome (control, treated, inhibition, significance) (Carcinogen: N-METHYL-N-NITROSOUREA, 684-93-5, Dose [Inhibitor]: 1 MMOL/KG DIET DAILY STARTING 3 D AFTER LAST CARCINOGEN DOSE THROUGH END OF STUDY (STUDY DURATION: 129 D), Strain/Sex: SPRAGUE-DAWLEY/FEMALE, Target Tissue: Type of Lesion: MAMMARY GLAND: TUMOR, Dose [Carcinogen]: 50 MG/KG BW AT BOTH 50 AND 57 D OF AGE): 17/17 (100%), 12/18 (67%), 33%, p<0.001
- tumour outcome (control, treated, inhibition, significance) (Carcinogen: N-METHYL-N-NITROSOUREA, 684-93-5, Dose [Inhibitor]: 1 MMOL/KG DIET DAILY STARTING 3 D AFTER LAST CARCINOGEN DOSE THROUGH END OF STUDY (STUDY DURATION: 182 D), Strain/Sex: SPRAGUE-DAWLEY/FEMALE, Target Tissue: Type of Lesion: MAMMARY GLAND: TUMOR, Dose [Carcinogen]: 15 MG/KG BW AT BOTH 50 AND 57 D OF AGE): 12/40 (30%), 5/39 (13%), 57%, not significant
- tumour outcome (control, treated, inhibition, significance) (Carcinogen: N-METHYL-N-NITROSOUREA, 684-93-5, Dose [Inhibitor]: 2 MMOL/KG DIET DAILY STARTING 3 D AFTER LAST CARCINOGEN DOSE THROUGH END OF STUDY (STUDY DURATION: 129 D), Strain/Sex: SPRAGUE-DAWLEY/FEMALE, Target Tissue: Type of Lesion: MAMMARY GLAND: TUMOR, Dose [Carcinogen]: 50 MG/KG BW AT BOTH 50 AND 57 D OF AGE): 17/17 (100%), 2/16 (13%), 87%, p<0.001
- tumour outcome (control, treated, inhibition, significance) (Carcinogen: N-METHYL-N-NITROSOUREA, 684-93-5, Dose [Inhibitor]: 2 MMOL/KG DIET DAILY STARTING 3 D AFTER LAST CARCINOGEN DOSE THROUGH END OF STUDY (STUDY DURATION: 182 D), Strain/Sex: SPRAGUE-DAWLEY/FEMALE, Target Tissue: Type of Lesion: MAMMARY GLAND: TUMOR, Dose [Carcinogen]: 15 MG/KG BW AT BOTH 50 AND 57 D OF AGE): 12/40 (30%), 0/40 (0%), 100%, p<0.001
- tumour outcome (control, treated, inhibition, significance) (Carcinogen: N-METHYL-N-NITROSOUREA, 684-93-5, Dose [Inhibitor]: 300 MG/KG OF DIET DAILY STARTING 7 D AFTER CARCINOGEN TREATMENT AND CONTINUING FOR DURATION OF STUDY (STUDY DURATION: 13, Strain/Sex: SPRAGUE-DAWLEY/FEMALE, Target Tissue: Type of Lesion: MAMMARY GLAND: ADENOCARCINOMA, Dose [Carcinogen]: 50 MG/KG BW IN 0.9% SALINE ONCE AT 50 D OF AGE): 25/25 (100%), 23/25 (92%), 8%, not significant
- tumour outcome (control, treated, inhibition, significance) (Carcinogen: N-METHYL-N-NITROSOUREA, 684-93-5, Dose [Inhibitor]: 328 MG/KG DIET DAILY FOR 4 MO STARTING 10 D AFTER START OF CARCINOGEN TREATMENT AND CONTINUING FOR DURATION OF STUDY (ST, Strain/Sex: SPRAGUE-DAWLEY/FEMALE, Target Tissue: Type of Lesion: MAMMARY GLAND: ADENOCARCINOMA, Dose [Carcinogen]: 2.5 MG/100 G BW IN 0.9% SALINE AND ACIDIFIED (PH 4 TO 5) WITH ACETIC ACID AT AGES 50 AND 57 D): 88%, 53%, 40%, p<0.01
- tumour outcome (control, treated, inhibition, significance) (Carcinogen: N-METHYL-N-NITROSOUREA, 684-93-5, Dose [Inhibitor]: 328 MG/KG IN DIET BEGINNING AT D 60 (STUDY DURATION: 129 D), Strain/Sex: SPRAGUE-DAWLEY/FEMALE, Target Tissue: Type of Lesion: MAMMARY GLAND: TUMOR, Dose [Carcinogen]: 2.5 MG/100 G AT 50 AND 57 D OF AGE): 22/30 (73%), 11/30 (37%), 49%, p<0.005
- tumour outcome (control, treated, inhibition, significance) (Carcinogen: N-METHYL-N-NITROSOUREA, 684-93-5, Dose [Inhibitor]: 328 MG/KG IN DIET BEGINNING AT D 60 (STUDY DURATION: 175 D), Strain/Sex: SPRAGUE-DAWLEY/FEMALE, Target Tissue: Type of Lesion: MAMMARY GLAND: TUMOR, Dose [Carcinogen]: 1.25 MG/100 G BODY WEIGHT IN 0.9% NACL SOLUTION ADMINISTERED AT D 50 AND 57 OF AGE): 8/30 (27%), 3/30 (10%), 63%, p<0.01
- tumour outcome (control, treated, inhibition, significance) (Dose [Inhibitor]: 3 UMOL/G DIET, Strain/Sex: SPRAGUE-DAWLEY/FEMALE, Target Tissue: Type of Lesion: LIVER: TUMOR, Dose [Carcinogen]: 1 PPM IN DIET): 76%, 79%, -4%, not calculated
- tumour outcome (control, treated, inhibition, significance) (Dose [Inhibitor]: 3 UMOL/G DIET, Strain/Sex: SPRAGUE-DAWLEY/MALE, Target Tissue: Type of Lesion: LIVER: TUMOR, Dose [Carcinogen]: 1 PPM IN DIET): 89%, 88%, 1%, not calculated
- tumour outcome (control, treated, inhibition, significance) (Dose [Inhibitor]: 30 UMOL/G DIET, Strain/Sex: SPRAGUE-DAWLEY/FEMALE, Target Tissue: Type of Lesion: LIVER: TUMOR, Dose [Carcinogen]: 1 PPM IN DIET): 76%, 84%, -11%, not calculated
- tumour outcome (control, treated, inhibition, significance) (Dose [Inhibitor]: 30 UMOL/G DIET, Strain/Sex: SPRAGUE-DAWLEY/MALE, Target Tissue: Type of Lesion: LIVER: TUMOR, Dose [Carcinogen]: 1 PPM IN DIET): 89%, 92%, -3%, not calculated
